Test results: US20030224390A1, “Method of identifying conformation-sensitive binding peptides and uses thereof” (Karo Bio AB, priority 2000, published 2003)

Key:
ERβ = ERβ (Homo sapiens, UniProt Q92731); assay: Binding of the peptide probes to ERβ in the presence of modulators (Table 15b)
androgen receptor [1] = biological target: T1, androgen receptor (Homo sapiens, UniProt P10275); assay type: cell-based; design: expressed in transfected cells; conditions: for luciferase normalized to β-galactosidase, DHT / luciferase normalized to β-galactosidase, MPA / luciferase normalized to β-galactosidase, RU486 / luciferase normalized to β-galactosidase, no compound: mammalian two-hybrid, Huh-7 cells; for luciferase normalized to β-galactosidase, DHT: ligand DHT; for luciferase normalized to β-galactosidase, MPA: ligand MPA; for luciferase normalized to β-galactosidase, RU486: ligand RU486
T1 sequence (P10275 1-920): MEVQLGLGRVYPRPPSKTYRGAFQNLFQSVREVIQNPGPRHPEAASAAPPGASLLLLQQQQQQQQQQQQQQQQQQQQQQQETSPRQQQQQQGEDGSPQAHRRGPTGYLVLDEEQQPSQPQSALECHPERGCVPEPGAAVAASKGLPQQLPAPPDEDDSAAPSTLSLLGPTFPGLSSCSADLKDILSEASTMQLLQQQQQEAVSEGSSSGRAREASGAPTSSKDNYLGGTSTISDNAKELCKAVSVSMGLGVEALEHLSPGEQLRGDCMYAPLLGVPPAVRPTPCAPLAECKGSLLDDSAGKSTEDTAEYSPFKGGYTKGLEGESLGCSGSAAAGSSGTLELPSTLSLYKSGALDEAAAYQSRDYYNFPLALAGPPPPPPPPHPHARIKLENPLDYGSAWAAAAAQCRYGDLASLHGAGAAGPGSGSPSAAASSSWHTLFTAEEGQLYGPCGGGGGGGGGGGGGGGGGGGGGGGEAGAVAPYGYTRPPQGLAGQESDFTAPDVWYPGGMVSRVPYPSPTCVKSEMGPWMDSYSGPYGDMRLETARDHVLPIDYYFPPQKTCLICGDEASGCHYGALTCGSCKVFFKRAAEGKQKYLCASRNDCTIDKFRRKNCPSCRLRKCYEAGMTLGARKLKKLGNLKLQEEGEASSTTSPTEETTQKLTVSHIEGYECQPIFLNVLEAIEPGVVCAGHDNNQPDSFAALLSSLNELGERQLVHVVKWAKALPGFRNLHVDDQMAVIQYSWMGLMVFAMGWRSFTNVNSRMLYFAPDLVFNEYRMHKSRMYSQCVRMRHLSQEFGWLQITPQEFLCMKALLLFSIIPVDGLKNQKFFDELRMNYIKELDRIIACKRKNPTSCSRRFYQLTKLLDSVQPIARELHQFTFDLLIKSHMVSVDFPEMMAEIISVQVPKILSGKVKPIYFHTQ
From the text: We used a mammalian two-hybrid system to determine specificities of the AR-binding peptides previously identified, through screening of the aforementioned yeast library, as ligand-dependent in their binding activity. Ligand was provided to the cells so the interaction could be observed. The human hepatoma cell line, Huh-7, was used as the recipient of two-hybrid vectors, pM and pVP16 (Clontech) (FIGS. 6A and 6B), containing fusions with peptide and AR, respectively. According to Clontech literature, the Clontech vectors pM and VP16 generate fusions of protein X with the GAL4 DNA-BD and fusions of protein Y with the VP16AD, in the Mammalian MM Two-Hybrid Assay Kit (#K1602-1). (Note: pM and VP16 contain unique cloning sites in the same order and reading frame as the DNA-BD and AD, respectively, vectors in the yeast […] Two-Hybrid Systems.) A third vector, pG5CAT, provides a CAT reporter gene under the control of a GAL4-responsive element and minimal promoter of the adenovirus E1b. The three vectors are cotransfected into any suitable mammalian host cell line by standard methods. The interaction between proteins X and Y is then assayed by measuring CAT gene expression by any standard method. In the absence of activation (i.e., no protein-protein interaction), the minimal E1b promoter will not express significant levels of CAT.
Briefly, cells are seeded in a 24-well culture plate to a density of 50-80% confluence in phenol red-free media containing charcoal-dextran stripped fetal bovine serum (10%). Following incubation overnight, cells are transfected with plasmids pM-peptide, pVP16-AR, pCMV-b-gal, and p5XGAL-Luc3 DNAs using lipofectamine 2000 (LifeTech) according to the manufacturer's protocol. Transfections are allowed to proceed for 6 hours and the transfection media is aspirated and replaced with recovery media for 18 hours. Following the recovery period, cells are treated with compound for 24 hours prior to cell harvesting. Cells are washed with PBS and then lysed using the lysis buffer from the Galacto-Light Plus β-galactosidase assay kit (Tropix). Assays for luciferase and β-galactosidase were performed as described by the manufacturer. Peptide/AR interactions are described in terms of the luciferase activity normalized for transfection efficiency using β-galactosidase activity (see FIG. 4A). Two types of useful information arose from these methods: 1) we generated a panel of useful peptide probes to analyze the conformational state of AR, and 2) we “fingerprinted” AR modulators with respect to AR conformation (FIG. 4B). […] FIG. 4B is the converse of 4A. It compares the ability of six ligands (DHT, MPA, CYP, RU486, FLUT and DHEAs to interact with AR in the presence of each of four peptides (D30, 5G11, B8H3 and […]). Thus, it is a “fingerprint” of each of the six ligands using a four peptide panel. (Note that “1269” and D30” refer to the same peptide.)

androgen receptor [2] = biological target: T1, androgen receptor; assay: Yeast two-hybrid screening of unbiased X15 peptide library, ligand induced β-galactosidase activity (FIG. 3, Table 503); assay type: cell-based; design: expressed in transfected cells; host or cells: Saccharomyces cerevisiae PJ69-4α; ligand induced β-galactosidase activity, No Lig / ligand induced β-galactosidase activity, DHT / ligand induced β-galactosidase activity, CPA / ligand induced β-galactosidase activity, RU / ligand induced β-galactosidase activity, Test / ligand induced β-galactosidase activity, MPA: unit not given here; conditions: for Fold induction: untitled table before Table 503, values match DHT / No Lig of Table 503; for ligand induced β-galactosidase activity, CPA / ligand induced β-galactosidase activity, DHT / ligand induced β-galactosidase activity, RU / ligand induced β-galactosidase activity, No Lig / ligand induced β-galactosidase activity, MPA / ligand induced β-galactosidase activity, Test: yeast two-hybrid
From the text: Our library contained predominantly 15 random amino acid residues/peptide in order to identify motifs that might interact with nuclear receptor domains. If ligand is provided to the cells, one can screen for peptides that interact with the ligand-bound receptor. […] Included at the ends of the oligonucleotide were the synthetic restriction endonuclease cleavage sites, EcoRI or Mfe I (5′ end) and Sal I (3′ end). Oligonucleotides were annealed, then cleaved with excess restriction endonuclease and purified on agarose gels. The purified set of oligonucleotides was subcloned as an in-frame carboxy-terminal fusion to a Gal4 DNA binding domain (plasmid vector pMA424 derivative). […] The transformation mix was divided and grown on plates of selective media containing ligand and 25 mM 3-aminotriazole at 30° C. until colonies appeared in 3-7 days. […] Dihydrotestosterone (DHT) and medroxyprogesterone (MPA) were added to the media at 100 nM to identify peptides that interact with the receptor in the presence of ligand. After colonies appeared they were picked and dispersed into individual wells of a 96-well plate containing rich media (YPD).
To determine ligand dependence, two microliter aliquots were removed from the cell suspension, and arrayed and spotted onto each of two rectangular agar plates, one with 100 nM ligand and one without ligand. Growth was monitored daily.
A secondary test of ligand dependent activation was performed using the integrated GAL4-driven lacZ gene. Cell suspensions of the initial positive clones were diluted 20-fold into 20 microliters of rich media in a microplate and grown overnight at 30° C. in the presence and absence of ligand. Microplates were centrifuged for 5 minutes at 3000 rpm in a swinging table top centrifuge to pellet the yeast cells, and the overlying media was aspirated. […] An OD650 density determination was made to normalize the β-galactosidase activity. β-galactosidase activity was monitored following the addition of buffer containing chlorophenol red-β-galactopyranoside (CPRG) (Boehringer Mannheim) substrate at a final concentration of 0.5 mM. […] The maximum slope value of this measurement was normalized to cell density from the initial OD650 value, and the relative ligand dependence of β-galactosidase was determined by comparing the values plus and minus ligand.
In FIG. 3, all of these ligands were tested. The plasmids from true positives were extracted using standard yeast extraction protocols and re-transformed to verify the positive phenotype.

Sequence of ERβ (Q92731 whole entry, species assumed): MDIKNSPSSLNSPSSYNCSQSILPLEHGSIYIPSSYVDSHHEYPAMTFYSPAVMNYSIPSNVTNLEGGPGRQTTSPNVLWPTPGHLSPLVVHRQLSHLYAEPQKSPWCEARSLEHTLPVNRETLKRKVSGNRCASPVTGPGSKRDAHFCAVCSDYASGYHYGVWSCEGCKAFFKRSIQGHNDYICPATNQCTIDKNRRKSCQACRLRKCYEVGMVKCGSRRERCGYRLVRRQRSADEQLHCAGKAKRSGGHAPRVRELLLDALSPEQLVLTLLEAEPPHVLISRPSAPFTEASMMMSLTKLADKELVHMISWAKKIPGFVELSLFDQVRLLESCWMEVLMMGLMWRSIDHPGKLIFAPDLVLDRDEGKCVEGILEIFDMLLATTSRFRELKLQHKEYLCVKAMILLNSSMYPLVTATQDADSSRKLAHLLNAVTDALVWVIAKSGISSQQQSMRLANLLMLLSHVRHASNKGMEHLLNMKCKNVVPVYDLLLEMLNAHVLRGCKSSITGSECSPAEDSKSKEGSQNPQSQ

Row | Molecule | Equiv. (equivalency), peptide probe α/βIII on ERβ (ERβ) [%] | Equiv. (equivalency), peptide probe α/βIV on ERβ (ERβ) [%] | Equiv. (equivalency), peptide probe α/βV on ERβ (ERβ) [%] | Equiv. (equivalency), peptide probe βI on ERβ (ERβ) [%] | Equiv. (equivalency), peptide probe βIII on ERβ (ERβ) [%] | luciferase normalized to β-galactosidase, CYP. (androgen receptor [1]) | luciferase normalized to β-galactosidase, DHT (androgen receptor [1]) | luciferase normalized to β-galactosidase, MPA (androgen receptor [1]) | luciferase normalized to β-galactosidase, RU486 (androgen receptor [1]) | luciferase normalized to β-galactosidase, no compound (androgen receptor [1]) | Fold induction (androgen receptor [2]) | ligand induced β-galactosidase activity, CPA (androgen receptor [2]) | ligand induced β-galactosidase activity, DHT (androgen receptor [2]) | ligand induced β-galactosidase activity, RU (androgen receptor [2]) | ligand induced β-galactosidase activity, No Lig (androgen receptor [2]) | other results
1 | CCN(CC)CCOc1ccc(C(=C(Cl)c2ccccc2)c2ccccc2)cc1 [Clomiphene] | 34 | 0 | 13 | −62 | −61 | – | – | – | – | – | – | – | – | – | – | –
2 | C[C@]12CC[C@@H]3c4ccc(O)cc4CC[C@H]3[C@@H]1C[C@@H](O)[C@@H]2O [Estriol] | −57 | −75 | 0 | −96 | 77 | – | – | – | – | – | – | – | – | – | – | Equiv. (equivalency), peptide probe α/βI on ERβ (ERβ; probe α/βI, positive: % of maximum stimulation by the modulator used to isolate the probe, negative: % of reduction by ICI 182,780): 81%
3 | O=C(c1ccc(OCCN2CCCCC2)cc1)c1c(-c2ccc(O)cc2)sc2cc(O)ccc12 [Raloxifene] | 77 | 0 | 0 | −53 | −71 | – | – | – | – | – | – | – | – | – | – | –
4 | EFHSRLRVEVVSWGIGSTCSQANSGRISYDL* [B8H3] | – | – | – | – | – | 10.47 | 11.6 | 11.33 | 3.879 | 0.1316 | 22 | 0.3927 | 3.807 | −0.0 | 0.1737 | –
5 | EFPELLAMTRWGRHAALLEPQRLPPPRTTTQPQTEFERMFFFTRPMRTTGLLDLQPS [B2A7] | – | – | – | – | – | – | – | – | – | – | – | 0.2919 | 1.719 | 0.5 | 0.3711 | –
6 | EFRFPFHEMVREWESMGLERVRYAEP [M4D1] | – | – | – | – | – | – | – | – | – | – | – | −0.03955 | 0.3948 | 0.1 | 0 | ligand induced β-galactosidase activity, MPA (androgen receptor [2]): 1.698; ligand induced β-galactosidase activity, Test (androgen receptor [2]): 0.1337
7 | EFRQSFVSEILGGGWLPLDLOPS [M2H3] | – | – | – | – | – | – | – | – | – | – | 10 | 8.592 | 24.12 | 6.8 | 2.53 | ligand induced β-galactosidase activity, MPA (androgen receptor [2]): 19.25; ligand induced β-galactosidase activity, Test (androgen receptor [2]): 26.57
8 | EFRSSVFEQMYLCTGGSLDLQPS* [B5G11] | – | – | – | – | – | 4.462 | 15.84 | 8.029 | 0.1051 | 0.05028 | – | 0.9726 | 3.964 | 0.9 | 0.6382 | –
9 | EFVNWDAVVPWSELVALLDLOPS [B8A10] | – | – | – | – | – | – | – | – | – | – | 1 | 0.3955 | 0.6163 | 0.4 | 0.8753 | –
10 | HPTHSSRLWELLMEATPTM [D30] | – | – | – | – | – | 11.18 | 12.59 | 15.62 | 0.8461 | 0.03854 | – | – | – | – | – | –
